From patent EP4800015A1, “AZABICYCLO DERIVATIVE AND PREPARATION METHOD THEREFOR, AND USE” (Zhejiang Hisun Pharmaceutical Co., Ltd., priority 2023, dated 2025) come the findings set out here.

Structures are written as SMILES. Where two headings read alike, the source gives them in different places.

The assay has as its target T1, recombinant human WRN (Homo sapiens, UniProt Q14191).
T1 construct: purchased BPS 101264
The experiment in a line: Inhibition of WRN enzyme activity (ATPase), ADP-Glo Kinase Assay. As to conditions: WRN protein 5 nM, Flap 0.1 nM, ATP 30 µM. The format is biochemical. The method in brief: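 ATPase activity was measured by ADP-Glo luminescence after a 10-min room-temperature reaction with 30 µM ATP and 0.1 nM Flap26 oligonucleotide substrate. The 5 nM WRN had first been exposed to compound (0.004–1000 nM) for 15 min in pH 7.5 Tris buffer with 2 mM MgCl2. IC50 values came from log-concentration regression against the DMSO control.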
In general terms: ADP-Glo turns the ADP formed in a reaction into a luminescent signal.

T1 sequence (Q14191 whole entry): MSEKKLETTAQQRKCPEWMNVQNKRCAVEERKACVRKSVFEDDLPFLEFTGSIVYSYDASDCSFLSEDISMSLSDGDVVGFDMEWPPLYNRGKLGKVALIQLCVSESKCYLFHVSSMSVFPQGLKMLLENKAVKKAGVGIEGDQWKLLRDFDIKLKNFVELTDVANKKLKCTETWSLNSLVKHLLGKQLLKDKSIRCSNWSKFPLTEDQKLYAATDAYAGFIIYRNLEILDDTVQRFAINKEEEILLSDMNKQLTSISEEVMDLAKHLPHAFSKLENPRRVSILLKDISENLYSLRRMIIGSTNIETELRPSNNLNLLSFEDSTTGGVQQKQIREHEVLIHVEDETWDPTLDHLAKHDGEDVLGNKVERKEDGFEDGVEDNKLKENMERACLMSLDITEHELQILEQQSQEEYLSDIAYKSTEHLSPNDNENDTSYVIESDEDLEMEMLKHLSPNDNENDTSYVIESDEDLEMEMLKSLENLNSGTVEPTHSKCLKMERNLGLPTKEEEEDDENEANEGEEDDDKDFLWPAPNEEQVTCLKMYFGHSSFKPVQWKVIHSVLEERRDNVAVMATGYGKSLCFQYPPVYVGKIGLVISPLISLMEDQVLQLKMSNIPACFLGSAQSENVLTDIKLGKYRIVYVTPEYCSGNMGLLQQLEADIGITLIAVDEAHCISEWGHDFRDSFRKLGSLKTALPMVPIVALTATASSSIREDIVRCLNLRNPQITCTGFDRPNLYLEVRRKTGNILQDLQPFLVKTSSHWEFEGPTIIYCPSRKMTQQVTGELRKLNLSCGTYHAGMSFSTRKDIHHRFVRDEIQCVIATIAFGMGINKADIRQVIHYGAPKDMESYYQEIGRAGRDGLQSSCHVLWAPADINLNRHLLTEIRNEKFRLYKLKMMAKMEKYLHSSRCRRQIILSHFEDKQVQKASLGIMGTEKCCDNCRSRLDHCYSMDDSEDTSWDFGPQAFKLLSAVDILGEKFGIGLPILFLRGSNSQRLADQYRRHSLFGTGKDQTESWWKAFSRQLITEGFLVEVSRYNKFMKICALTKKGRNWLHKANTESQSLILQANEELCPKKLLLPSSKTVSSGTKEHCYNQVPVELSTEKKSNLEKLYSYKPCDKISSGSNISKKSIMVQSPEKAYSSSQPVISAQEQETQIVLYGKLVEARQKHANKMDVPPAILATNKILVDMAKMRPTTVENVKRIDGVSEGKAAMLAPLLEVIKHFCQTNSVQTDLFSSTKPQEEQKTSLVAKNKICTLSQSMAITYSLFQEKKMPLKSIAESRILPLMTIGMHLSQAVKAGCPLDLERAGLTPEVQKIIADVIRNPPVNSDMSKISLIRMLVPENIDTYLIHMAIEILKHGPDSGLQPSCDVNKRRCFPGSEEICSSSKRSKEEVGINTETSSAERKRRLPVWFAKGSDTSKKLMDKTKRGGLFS

Consider `CCc1c(N2CCN(C(=O)c3ncnc(C)c3O)CC2)c(=O)n2nc(N3CC4(COC4)C3)nc2n1CC(=O)Nc1ccc(C(F)(F)F)cc1Cl` [Example 16, N-(2-chloro-4-(trifluoromethyl)phenyl)-2-(5-ethyl-6-(4-(5-hydroxy-6-methylpyrimidine-4-carbonyl)piperazin-1-yl)-7-oxo-2-(2-oxa-6-azaspiro[3.3]heptan-6-yl)-[1,2,4]triazolo[1,5-a]pyrimidin-4(7H)-yl)acetamide], for which the IC50 (read-out: IC50) lay in the range of 1 to 100 nM.

As for `Cc1ncnc(C(=O)N2CCN(c3c(C)n(CC(=O)Nc4ccc(C(F)(F)F)cc4Cl)c4nc(C5=CC6CC(=O)CC6C5)nn4c3=O)CC2)c1O` (centres unmarked) [Example 32, N-(2-chloro-4-(trifluoromethyl)phenyl)-2-(6-(4-(5-hydroxy-6-methylpyrimidine-4-carbonyl)piperazin-1-yl)-5-methyl-7-oxo-2-(5-oxo-1,3a,4,5,6,6a-hexahydropentalen-2-yl)-[1,2,4]triazolo[1,5-a]pyrimidin-4(7H)-yl)acetamide], the IC50 (read-out: IC50) lay in the range of 1 to 100 nM.

Consider `CCc1c(N2CCN(C(=O)c3ccccc3O)CC2)c(=O)n2nc(C3=CCCCCC3)nc2n1CC(=O)Nc1ccc(C(F)(F)F)cc1Cl` [Example 10, N-(2-chloro-4-(trifluoromethyl)phenyl)-2-(2-(cyclohept-1-en-1-yl)-5-ethyl-6-(4-(2-hydroxybenzoyl)piperazin-1-yl)-7-oxo-[1,2,4]triazolo[1,5-a]pyrimidin-4(7H)-yl)acetamide], for which the IC50 (read-out: IC50) was 1 to 100 nM.

Take `CCc1c(N2CCN(C(=O)c3ncnc(C)c3O)CC2)c(=O)n2nc(N3CCCOCC3)nc2n1CC(=O)Nc1ccc(C(F)(F)F)cc1Cl` [Example 1, N-(2-chloro-4-(trifluoromethyl)phenyl)-2-(5-ethyl-6-(4-(5-hydroxy-6-methylpyrimidine-4-carbonyl)piperazin-1-yl)-2-(1,4-oxazepan-4-yl)-7-oxo-[1,2,4]triazolo[1,5-a]pyrimidin-4(7H)-yl)acetamide]: where the note is “read-out: IC50”, the IC50 was 1 to 100 nM.

As to `CCc1c(N2CCN(C(=O)c3ncnc(C)c3O)CC2)c(=O)n2nc(C3=CC4CC4C3)nc2n1CC(=O)Nc1ccc(SC(F)(F)F)cc1` (centres unmarked) [Example 177, 2-(2-(bicyclo[3.1.0]hex-2-en-3-yl)-5-ethyl-6-(4-(5-hydroxy-6-methylpyrimidine-4-carbonyl)piperazin-1-yl)-7-oxo-[1,2,4]triazolo[1,5-a]pyrimidin-4(7H)-yl)-N-(4-((trifluoromethyl)thio)phenyl)ac etamide], the IC50 (read-out: IC50) fell in the range of 1 to 100 nM.

As to `CCc1c(N2CCN(C(=O)c3ncnc(C)c3O)CC2)c(=O)n2nc(C3=CC4COCC4C3)nc2n1CC(=O)Nc1ccc(S(F)(F)(F)(F)F)cc1` (centres unmarked) [Example 189, 2-(5-ethyl-6-(4-(5-hydroxy-6-methylpyrimidine-4-carbonyl)piperazin-1-yl)-7-oxo-2-(3,3a,4,6a-tetrahydro-1H-cyclopenta[c]furan-5-yl)-[1,2,4]triazolo[1,5-a]pyrimidin-4(7H)-yl)-N-(4-(pentafluor o-λ^6-sulfaneyl)phenyl)acetamide], the IC50 (read-out: IC50) is 1 to 100 nM.

As for `CCc1c(N2CCN(C(=O)c3ncnc(C)c3O)CC2)c(=O)n2nc(-c3ccc4c(c3)CCO4)cc2n1CC(=O)Nc1ccc(C(F)(F)F)cc1Cl` [Example 82, N-(2-chloro-4-(trifluoromethyl)phenyl)-2-(2-(2,3-dihydrobenzofuran-5-yl)-5-ethyl-6-(4-(5-hydroxy-6-methylpyrimidine-4-carbonyl)piperazin-1-yl)-7-oxopyrazolo[1,5-a]pyrimidin-4(7H)-yl)acet amide], the IC50 (read-out: IC50) fell in the range of 1 to 100 nM.

Regarding `CCc1c(N2CCN(C(=O)c3ncnc(C)c3O)CC2)c(=O)n2nc(C3=CCCCCC3)cc2n1CC(=O)Nc1ccc(S(F)(F)(F)(F)F)cc1` [Example 59, 2-(2-(cyclohept-1-en-1-yl)-5-ethyl-6-(4-(5-hydroxy-6-methylpyrimidine-4-carbonyl)piperazin-1-yl)-7-oxopyrazolo[1,5-a]pyrimidin-4(7H)-yl)-N-(4-(pentafluoro-λ^6-sulfaneyl)phenyl)acetamide], for the setting “read-out: IC50”, the IC50 is 1 to 100 nM.

For the molecule `CCc1c(N2CCN(C(=O)c3ncnc(C)c3O)CC2)c(=O)n2nc(-c3ccc4nc[nH]c4c3)nc2n1CC(=O)Nc1ccc(C(F)(F)F)cc1Cl` [Example 138, 2-(2-(1H-benzo[d]imidazol-6-yl)-5-ethyl-6-(4-(5-hydroxy-6-methylpyrimidine-4-carbonyl)piperazin-1-yl)-7-oxo-[1,2,4]triazolo[1,5-a]pyrimidin-4(7H)-yl)-N-(2-chloro-4-(trifluoromethyl)phenyl) acetamide], the IC50 was 1 to 100 nM.

In the case of `CCc1c(N2CCN(C(=O)c3ncccc3O)CC2)c(=O)n2nc(C3=CC4CC4C3)nc2n1CC(=O)Nc1ccc(C(F)(F)F)cc1Cl` (centres unmarked) [Example 38, 2-(2-(bicyclo[3.1.0]hex-2-en-3-yl)-5-ethyl-6-(4-(3-hydroxypicolinoyl)piperazin-1-yl)-7-oxo-[1,2, 4]triazolo[1,5-a]pyrimidin-4(7H)-yl)-N-(2-chloro-4-(trifluoromethyl)phenyl)acetamide], the IC50 (read-out: IC50) is under 1 nM.

Regarding `CCc1c(N2CCN(C(=O)c3ncccc3O)CC2)c(=O)n2nc(-c3cc4ccccc4s3)nc2n1CC(=O)Nc1ccc(C(F)(F)F)cc1Cl` [Example 79, 2-(2-(benzo[b]thiophen-2-yl)-5-ethyl-6-(4-(3-hydroxypicolinoyl)piperazin-1-yl)-7-oxo-[1,2,4]triazolo[1,5-a]pyrimidin-4(7H)-yl)-N-(2-chloro-4-(trifluoromethyl)phenyl)acetamide], the IC50 (read-out: IC50) was 1 to 100 nM.

`CCc1c(N2CCN(C(=O)c3ncnc(C)c3O)CC2)c(=O)n2nc(-c3ccc4c(c3)CCO4)nc2n1CC(=O)Nc1cc2ccsc2cc1C` [Example 168, 2-(2-(2,3-dihydrobenzofuran-5-yl)-5-ethyl-6-(4-(5-hydroxy-6-methylpyrimidine-4-carbonyl)piperazin-1-yl)-7-oxo-[1,2,4]triazolo[1,5-a]pyrimidin-4(7H)-yl)-N-(6-methylbenzo[b]thiophen-5-yl)ac etamide]: the IC50 (read-out: IC50) was in the range of 1 to 100 nM.

With `CCc1c(N2CCN(C(=O)c3ncnc(C)c3O)CC2)c(=O)n2nc(C=C3CCOCC3)nc2n1CC(=O)Nc1ccc(C(F)(F)F)cc1Cl` [Example 21, N-(2-chloro-4-(trifluoromethyl)phenyl)-2-(5-ethyl-6-(4-(5-hydroxy-6-methylpyrimidine-4-carbonyl)piperazin-1-yl)-7-oxo-2-((tetrahydro-4H-pyran-4-ylidene)methyl)-[1,2,4]triazolo[1,5-a]pyrimidin-4(7H)-yl)acetamide], the IC50 (read-out: IC50) is 1 to 100 nM.

Take `CCc1c(N2CCN(C(=O)c3ncnc(C)c3O)CC2)c(=O)n2nc(C3=C[C@@H]4C[C@@H]4C3)nc2n1CC(=O)Nc1ccc(S(F)(F)(F)(F)F)cc1` [Example 195, 2-(2-((1R,5R)-bicyclo[3.1.0]hex-2-en-3-yl)-5-ethyl-6-(4-(5-hydroxy-6-methylpyrimidine-4-carbonyl)piperazin-1-yl)-7-oxo-[1,2,4]triazolo[1,5-a]pyrimidin-4(7H)-yl)-N-(4-(pentafluoro-λ6-sulfaneyl)phenyl)acetamide]: for the setting “read-out: IC50”, the IC50 fell in the range of 1 to 100 nM.

As to `[2H]C([2H])([2H])Sc1ccc(NC(=O)Cn2c(CC)c(N3CCN(C(=O)c4ncnc(C)c4O)CC3)c(=O)n3nc(C4=CC5CC5C4)nc23)cc1` (centres unmarked) [Example 181, 2-(2-(Bicyclo[3.1.0]hex-2-en-3-yl)-5-ethyl-6-(4-(5-hydroxy-6-methylpyrimidine-4-carbonyl)piperazin-1-yl)-7-oxo-[1,2,4]triazolo[1,5-a]pyrimidin-4(7H)-yl)-N-(4-((methyl-d3)thio)phenyl)acetamide], for the setting “read-out: IC50”, the IC50 is 1 to 100 nM.

For `CCc1c(N2CCN(C(=O)c3ncccc3O)CC2)c(=O)n2nc(-c3cc4ccccc4o3)nc2n1CC(=O)Nc1ccc(C(F)(F)F)cc1Cl` [Example 75, 2-(2-(benzofuran-2-yl)-5-ethyl-6-(4-(3-hydroxypicolinoyl)piperazin-1-yl)-7-oxo-[1,2,4]triazolo[1 ,5-a]pyrimidin-4(7H)-yl)-N-(2-chloro-4-(trifluoromethyl)phenyl)acetamide], where the note is “read-out: IC50”, the IC50 lay in the range of 1 to 100 nM.

In the case of `CCc1c(N2CCN(C(=O)c3ncnc(C)c3O)CC2)c(=O)n2nc(-c3coc4ccccc34)nc2n1CC(=O)Nc1ccc(C(F)(F)F)cc1Cl` [Example 35, 2-(2-(benzofuran-3-yl)-5-ethyl-6-(4-(5-hydroxy-6-methylpyrimidine-4-carbonyl)piperazin-1-yl)-7-oxo-[1,2,4]triazolo[1,5-a]pyrimidin-4(7H)-yl)-N-(2-chloro-4-(trifluoromethyl)phenyl) acetamide], the IC50 lay within 1 to 100 nM.

`CCc1c(N2CCN(C(=O)c3ncccc3O)CC2)c(=O)n2nc(C3=CC4(CCC4)C3)nc2n1CC(=O)Nc1ccc(C(F)(F)F)cc1Cl` [Example 51, N-(2-chloro-4-(trifluoromethyl)phenyl)-2-(5-ethyl-6-(4-(3-hydroxypicolinoyl)piperazin-1-yl)-7-oxo-2-(spiro[3.3]hept-1-en-2-yl)-[1,2,4]triazolo[1,5-a]pyrimidin-4(7H)-yl)acetamide]: the IC50 (read-out: IC50) was 1 to 100 nM.

`CCc1c(N2CCN(C(=O)c3ncnc(C)c3O)CC2)c(=O)n2nc(-c3ccc4ccoc4c3)cc2n1CC(=O)Nc1ccc(C(F)(F)F)cc1Cl` [Example 57, 2-(2-(benzofuran-6-yl)-5-ethyl-6-(4-(5-hydroxy-6-methylpyrimidine-4-carbonyl)piperazin-1-yl)-7-oxopyrazolo[1,5-a]pyrimidin-4(7H)-yl)-N-(2-chloro-4-(trifluoromethyl)phenyl)acetamide]: the IC50 (read-out: IC50) is 1 to 100 nM.

On to `CCc1c(N2CCN(C(=O)c3ncnc(C)c3O)CC2)c(=O)n2nc(C(C)=C3CCC3)nc2n1CC(=O)Nc1ccc(C(F)(F)F)cc1Cl` [Example 60, N-(2-chloro-4-(trifluoromethyl)phenyl)-2-(2-(1-cyclobutylideneethyl)-5-ethyl-6-(4-(5-hydroxy-6-methylpyrimidine-4-carbonyl)piperazin-1-yl)-7-oxo-[1,2,4]triazolo[1,5-a]pyrimidin-4(7H)-yl)ace tamide], for which the IC50 (read-out: IC50) lay within 1 to 100 nM.

As usually defined, the IC50 is the point on the concentration scale where inhibition reaches its midpoint.
